Experimental data reported in US7998987B2, “Inhibitors of c-Met and uses thereof” (Vertex Pharmaceuticals Incorporated, priority 2005, dated 2011).

target: c-Met (Homo sapiens, UniProt P08581); assay: Ki determination for the inhibition of c-Met kinase activity (standard coupled enzyme system); format: biochemical; details: coupled enzyme system, 200 μM ATP, 80 nM c-Met, 30° C.; read-out: c-Met Ki
In short: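 The kinase (80 nM) turned over polyGluTyr (10 μM) with ATP (200 μM, added to start), coupled to NADH oxidation via pyruvate kinase/lactate dehydrogenase at pH 7.5 HEPES, 1.5% DMSO.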

Chain of c-Met (P08581 25-1390): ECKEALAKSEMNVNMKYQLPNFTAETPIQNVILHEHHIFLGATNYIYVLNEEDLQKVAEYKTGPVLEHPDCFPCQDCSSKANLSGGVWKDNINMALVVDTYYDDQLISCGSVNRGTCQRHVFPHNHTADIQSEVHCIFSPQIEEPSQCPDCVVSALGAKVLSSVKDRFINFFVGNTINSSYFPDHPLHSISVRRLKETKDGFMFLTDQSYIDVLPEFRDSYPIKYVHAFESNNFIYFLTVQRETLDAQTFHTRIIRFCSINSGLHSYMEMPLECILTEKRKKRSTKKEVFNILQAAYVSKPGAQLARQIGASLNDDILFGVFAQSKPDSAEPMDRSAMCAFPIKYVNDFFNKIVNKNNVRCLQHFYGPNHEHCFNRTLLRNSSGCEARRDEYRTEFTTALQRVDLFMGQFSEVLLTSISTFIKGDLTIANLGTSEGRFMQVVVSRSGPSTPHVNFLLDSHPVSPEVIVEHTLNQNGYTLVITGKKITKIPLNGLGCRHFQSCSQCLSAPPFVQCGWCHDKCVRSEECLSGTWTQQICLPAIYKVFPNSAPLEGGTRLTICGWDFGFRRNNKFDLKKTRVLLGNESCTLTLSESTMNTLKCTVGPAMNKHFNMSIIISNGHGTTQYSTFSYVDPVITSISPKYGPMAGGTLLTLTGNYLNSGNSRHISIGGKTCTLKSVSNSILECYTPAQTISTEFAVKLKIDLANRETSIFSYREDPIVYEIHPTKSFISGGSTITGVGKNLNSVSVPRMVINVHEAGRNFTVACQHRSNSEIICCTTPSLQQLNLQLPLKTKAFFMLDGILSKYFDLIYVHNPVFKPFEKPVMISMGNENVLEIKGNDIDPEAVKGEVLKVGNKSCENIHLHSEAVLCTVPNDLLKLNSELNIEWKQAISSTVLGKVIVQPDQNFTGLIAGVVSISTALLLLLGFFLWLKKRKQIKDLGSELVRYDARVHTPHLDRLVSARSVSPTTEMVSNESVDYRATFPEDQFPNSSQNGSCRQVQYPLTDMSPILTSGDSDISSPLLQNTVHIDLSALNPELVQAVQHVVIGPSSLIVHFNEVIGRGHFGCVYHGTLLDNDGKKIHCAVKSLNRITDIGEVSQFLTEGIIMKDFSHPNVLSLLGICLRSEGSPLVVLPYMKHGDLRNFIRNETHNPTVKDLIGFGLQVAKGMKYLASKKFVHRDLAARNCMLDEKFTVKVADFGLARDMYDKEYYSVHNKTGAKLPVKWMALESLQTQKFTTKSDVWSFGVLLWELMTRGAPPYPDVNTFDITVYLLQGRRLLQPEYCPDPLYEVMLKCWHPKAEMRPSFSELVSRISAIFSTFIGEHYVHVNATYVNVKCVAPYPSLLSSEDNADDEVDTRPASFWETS

| Structure (SMILES) | Ki [nM] |
| --- | --- |
| CS(=O)(=O)Nc1cccc(Cc2nnc3ccc(Nc4cccc(Cl)c4)nn23)c1 [Compound 403] | 100 to 2000 |
| Oc1ccc(Cc2nnc3ccc(NC4CCC4)nn23)cc1 [Compound 330] | 100 to 2000 |
| O=C(Cc1ccccc1)N1CCCC(Nc2ccc3nnc(Cc4ccc(O)cc4)n3n2)C1 (stereo not drawn) [Compound 328] | > 2000 |
| CCOc1cccc(OCc2nnc3ccc(Nc4cccc(Cl)c4)nn23)c1 [Compound 385] | > 2000 |
| Oc1ccc(C2(c3nnc4ccc(Nc5ccnc(Cl)c5)nn34)CC2)cc1 [Compound 520] | < 100 |
| O=C(O)Cc1ccc(C2=Nn3c(Cc4ccc(O)cc4)nnc3SC2)s1 [Compound 539] | 100 to 2000 |
| C[C@@H](c1ccc(O)cc1)c1nnc2ccc(NC3CC4CCC3C4)nn12 (stereo partly drawn) [Compound 420] | < 100 |
| CC(=O)Nc1ccc(OCc2nnc3ccc(Nc4cccc(Cl)c4)nn23)cc1 [Compound 469] | > 2000 |
| Cc1cccc(SCc2nnc3ccc(Nc4cccc(Cl)c4)nn23)c1 [Compound 388] | > 2000 |
| Oc1cccc(Cc2nnc3ccc(Nc4cccc(Cl)c4)nn23)c1 [Compound 365] | 100 to 2000 |
| Oc1ccc(Cc2nnc3ccc(Nc4ccc(F)c(Cl)c4)nn23)cc1 [Compound 424] | < 100 |
| N#Cc1ccc(OCc2nnc3ccc(Nc4cccc(Cl)c4)nn23)c(N)c1 [Compound 430] | > 2000 |
| Fc1ccc(Nc2ccc3nnc(C4(c5ccc6c(c5)OCO6)CC4)n3n2)cc1Cl [Compound 427] | 100 to 2000 |
| C[C@@H](c1ccc(O)cc1)c1nnc2ccc(Nc3ccc(F)c(Cl)c3)nn12 [Compound 426] | < 100 |
| COc1ccc(Cc2nnc3ccc(Nc4cccc(Cl)c4)nn23)cc1C(N)=O [Compound 496] | > 2000 |
| Oc1ccc2[nH]cc(Cc3nnc4ccc(Nc5cccc(Cl)c5)nn34)c2c1 [Compound 458] | > 2000 |
| Oc1ccc(NCc2nnc3ccc(Nc4cccc(Cl)c4)nn23)c2cccnc12 [Compound 352] | > 2000 |
| Oc1ccc(Cc2nnc3n2N=C(c2ccncc2)CS3)cc1 [Compound 538] | 100 to 2000 |
| Oc1ccc(Cc2nnc3ccc(NC4CC4)nn23)cc1 [Compound 329] | 100 to 2000 |
| Nc1cc(OCc2nnc3ccc(Nc4cccc(Cl)c4)nn23)c2ccccc2n1 [Compound 466] | > 2000 |
| Oc1ccc(Cc2nnc3ccc(NC4CCOCC4)nn23)cc1 [Compound 318] | 100 to 2000 |

| Structure (SMILES) | Ki [nM] |
| --- | --- |
| NC(=O)c1cc(Cc2nnc3ccc(Nc4cccc(Cl)c4)nn23)ccc1F [Compound 476] | > 2000 |
| CC(O)c1cccc(Nc2ccc3nnc(Cc4ccc(O)c(Cl)c4)n3n2)c1 (stereo not drawn) [Compound 299] | 100 to 2000 |
| NC(c1ccc(F)cc1)c1nnc2ccc(Nc3cccc(Cl)c3)nn12 (stereo not drawn) [Compound 492] | 100 to 2000 |
| CN(C)c1ccc(Cc2nnc3ccc(Nc4cccc(Cl)c4)nn23)cc1 [Compound 457] | > 2000 |
| CCOC(=O)N1CCC(Nc2ccc3nnc(Cc4ccc(O)cc4)n3n2)CC1 [Compound 306] | 100 to 2000 |
| CC(C)Oc1ccc(NCc2nnc3ccc(Nc4cccc(Cl)c4)nn23)cc1 [Compound 393] | > 2000 |
| CC[C@@H](CO)Nc1ccc2nnc(Cc3ccc(O)cc3)n2n1 [Compound 308] | 100 to 2000 |
| Fc1ccc(OCc2nnc3ccc(Nc4cccc(Cl)c4)nn23)cc1F [Compound 378] | > 2000 |
| CC(=O)N[C@H]1CCCC[C@@H]1Nc1ccc2nnc([C@@H](C)c3ccc(O)cc3)n2n1 [Compound 448] | > 2000 |
| Clc1cccc(Nc2ccc3nnc(COc4cccnc4)n3n2)c1 [Compound 371] | 100 to 2000 |
| C[C@@H](c1ccc(O)cc1)c1nnc2ccc(Nc3nc4ccccc4s3)nn12 [Compound 499] | 100 to 2000 |
| Oc1ccc(Cc2nnc3ccc(Nc4nc5ccc(Cl)cc5s4)nn23)cc1 [Compound 481] | 100 to 2000 |
| Clc1cccc(Nc2ccc3nnc(CNc4cccc(OCc5ccccc5)c4)n3n2)c1 [Compound 333] | > 2000 |
| Oc1cccc(CCc2nnc3ccc(Nc4cccc(Cl)c4)nn23)c1 [Compound 441] | > 2000 |
| Oc1ccc(Cc2nnc3ccc(Nc4cc(Cl)cc(Cl)c4)nn23)cc1 [Compound 294] | < 100 |
| Clc1cccc(Nc2ccc3nnc(COc4ccc5cccnc5c4)n3n2)c1 [Compound 423] | < 100 |
| C[C@@H](c1ccc(O)cc1)c1nnc2ccc(Cl)nn12 [Compound 501] | 100 to 2000 |
| CCc1cccc(Nc2ccc3nnc(Cc4ccc(O)c(F)c4)n3n2)c1 [Compound 289] | 100 to 2000 |
| COc1cc(Cc2nnc3ccc(Nc4cccc(Cl)c4)nn23)ccc1O [Compound 442] | < 100 |
| COc1cc(NCc2nnc3ccc(Nc4cccc(Cl)c4)nn23)c(C(C)=O)cc1OC [Compound 331] | > 2000 |
| Clc1cccc(Nc2ccc3nnc(Cn4ncc5ccccc54)n3n2)c1 [Compound 489] | > 2000 |

same assay, conditions: coupled enzyme system, 200 μM ATP, 10 μM polyGluTyr, 80 nM c-Met, 30° C.; read-out: c-Met Ki

| Structure (SMILES) | Ki [nM] |
| --- | --- |
| CNC(=O)c1cccc(Nc2ccc3nnc(Cc4ccc(O)c(F)c4)n3n2)c1 [Compound 233] | 100 to 2000 |
| C[C@@H](c1ccc(O)c(C(C)(C)C)c1)c1nnc2sc(Nc3cccc(F)c3)nn12 [Compound 172] | 100 to 2000 |
| COc1ccc(Cc2nnc3sc(-c4cccs4)nn23)cc1 [Compound 22] | 100 to 2000 |
| Oc1ccc(Cc2nnc3ccc(Nc4cccc(C(F)(F)F)c4)nn23)cc1Cl [Compound 224] | < 100 |
| O=C1CCCN1CCCNc1ccc2nnc(Cc3ccc(O)cc3)n2n1 [Compound 199] | > 2000 |
| COc1ccc(Cc2nnc3ccc(Nc4cccc(OC)c4)nn23)cc1 [Compound 242] | 100 to 2000 |
| Oc1ccc(CCc2nnc3sc(Nc4cccc(Cl)c4)nn23)cc1 [Compound 94] | > 2000 |
| Oc1cccc(CCc2nnc3sc(Nc4cccc(Cl)c4F)nn23)c1 [Compound 109] | 100 to 2000 |
| Oc1ccc(Cc2nnc3sc(NCC4CCCO4)nn23)cc1 (stereo not drawn) [Compound 17] | 100 to 2000 |
| Oc1ccc(Cc2nnc3ccc(NC4CCN(Cc5ccccc5)C4)nn23)cc1 (stereo not drawn) [Compound 273] | 100 to 2000 |
| CC(O)c1cccc(Nc2ccc3nnc(Cc4ccc(O)cc4)n3n2)c1 (stereo not drawn) [Compound 255] | < 100 |
| Oc1ccc(Cc2nnc3sc(Nc4cccc(F)c4F)nn23)cc1Cl [Compound 128] | < 100 |
| CNc1nn2c(Cc3ccc(O)cc3)nnc2s1 [Compound 14] | 100 to 2000 |
| CC(c1ccc(O)cc1)c1nnc2sc(Nc3cccnc3)nn12 (stereo not drawn) [Compound 82] | < 100 |
| C[C@@H](c1ccc(O)cc1)c1nnc2sc(Nc3ccc(Cl)cc3)nn12 [Compound 117] | < 100 |
| CC(C)Oc1cccc(Nc2ccc3nnc(Cc4ccc(O)cc4)n3n2)c1 [Compound 181] | < 100 |
| Oc1ccc(Cc2nnc3sc(Nc4ccc(F)cc4)nn23)cc1 [Compound 46] | < 100 |
| Oc1ccc(Cc2nnc3sc(Nc4cc(Cl)ccc4Cl)nn23)cc1 [Compound 77] | < 100 |
| COCC1CCCN1c1nn2c(Cc3ccc(OC)cc3)nnc2s1 (stereo not drawn) [Compound 12] | > 2000 |
| CCC(CC)Nc1ccc2nnc(Cc3ccc(O)cc3)n2n1 [Compound 281] | 100 to 2000 |
| c1cc2c(cc1Cc1nnc3sc(NCC4CCCO4)nn13)OCO2 (stereo not drawn) [Compound 42] | > 2000 |
| COc1ccc(Cc2nnc3ccc(Nc4cccc(F)c4)nn23)cc1 [Compound 285] | < 100 |
| COc1cc(Cc2nnc3sc(Nc4ccccc4)nn23)ccc1O [Compound 26] | 100 to 2000 |
| Fc1cccc(Nc2nn3c(Cn4ccc5ncccc54)nnc3s2)c1 [Compound 134] | 100 to 2000 |

| Structure (SMILES) | Ki [nM] |
| --- | --- |
| Cc1cc(Nc2ccc3nnc(Cc4ccc(O)cc4)n3n2)ccc1Cl [Compound 215] | < 100 |
| CN1CCC(Nc2ccc3nnc(Cc4ccc(O)cc4)n3n2)CC1 [Compound 283] | 100 to 2000 |
| COC(=O)c1ccc(Nc2nn3c(Cc4ccc(O)cc4)nnc3s2)cc1 [Compound 16] | < 100 |
| COc1ccc(Nc2nn3c(Cc4ccc(O)c(F)c4)nnc3s2)cc1 [Compound 64] | 100 to 2000 |
| Cc1cccc(Nc2ccc3nnc(Cc4ccc(O)c(Cl)c4)n3n2)c1 [Compound 228] | 100 to 2000 |
| Clc1ccc(Cc2nnc3sc(Nc4cccc(Cl)c4)nn23)cc1 [Compound 91] | > 2000 |
| Cc1ccc(Nc2nn3c(Cc4ccc(O)cc4)nnc3s2)cc1 [Compound 60] | < 100 |
| Oc1ccc(Cc2nnc3sc(Nc4cccc(F)c4)nn23)cc1F [Compound 108] | < 100 |
| COc1cccc(Nc2nn3c(Cc4ccc(O)c(Cl)c4)nnc3s2)c1 [Compound 36] | 100 to 2000 |
| Clc1cc(Cl)cc(Nc2ccc3nnc(Cc4ccncc4)n3n2)c1 [Compound 247] | 100 to 2000 |
| Oc1ccc(CCc2nnc3sc(Nc4cccc(F)c4)nn23)cc1 [Compound 93] | > 2000 |
| Fc1cc(F)cc(Nc2nn3c(Cc4ccc5c(c4)OCO5)nnc3s2)c1 [Compound 127] | < 100 |
| Oc1ccc(Cc2nnc3ccc(NC4CCCC4)nn23)cc1 [Compound 269] | 100 to 2000 |
| CSc1cccc(Nc2nn3c(Cn4ccc5c(O)cccc54)nnc3s2)c1 [Compound 169] | < 100 |
| COc1cccc(Nc2nn3c(Cc4ccc5c(c4)OCO5)nnc3s2)c1 [Compound 34] | 100 to 2000 |
| COc1ccc(Nc2nn3c(Cc4ccc(O)cc4)nnc3s2)cc1 [Compound 80] | < 100 |
| COc1ccc(Cc2nnc3ccc(Nc4cccc(C(F)(F)F)c4)nn23)cc1 [Compound 225] | 100 to 2000 |
| Fc1cccc(Nc2ccc3nnc(Cc4ccncc4)n3n2)c1 [Compound 220] | 100 to 2000 |
| Oc1ccc(Cc2nnc3sc(Nc4ccc(Cl)cc4)nn23)cc1Cl [Compound 55] | 100 to 2000 |
| CC(c1ccc(O)cc1)c1nnc2sc(Nc3ccccc3Cl)nn12 (stereo not drawn) [Compound 66] | < 100 |
| C[C@@H](c1ccc(O)cc1)c1nnc2sc(Nc3cncc(Cl)c3)nn12 [Compound 162] | < 100 |
| OCCc1cccc(Nc2ccc3nnc(Cc4ccc(O)cc4)n3n2)c1 [Compound 264] | < 100 |
| CNC(=O)c1cccc(Nc2ccc3nnc(Cc4ccc(OC)cc4)n3n2)c1 [Compound 235] | 100 to 2000 |
| Oc1ccc(Cc2nnc3ccc(N4CCC(c5ccccc5)C4)nn23)cc1 (stereo not drawn) [Compound 201] | > 2000 |
